{"source": "patent US6984719B1", "about": "“Peptide antagonists of prostaglandin F2α receptor” (Hospital Sainte-Justine, priority 1998, dated 2006)", "key": {"human FP receptor": {"target": "T1, human FP receptor (Homo sapiens, UniProt P43088)", "T1 construct": "expressed in transfected cells", "T1 sequence (P43088 whole entry)": "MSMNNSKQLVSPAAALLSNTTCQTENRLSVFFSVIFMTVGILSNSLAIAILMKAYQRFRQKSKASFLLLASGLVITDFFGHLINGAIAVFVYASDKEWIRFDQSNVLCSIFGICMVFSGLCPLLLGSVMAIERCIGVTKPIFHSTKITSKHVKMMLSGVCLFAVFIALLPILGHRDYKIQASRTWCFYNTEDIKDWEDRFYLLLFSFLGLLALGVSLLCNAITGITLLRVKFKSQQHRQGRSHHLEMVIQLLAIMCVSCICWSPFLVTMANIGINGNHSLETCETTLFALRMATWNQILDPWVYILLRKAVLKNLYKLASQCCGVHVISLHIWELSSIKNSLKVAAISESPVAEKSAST", "test": "PGF2α-induced phosphoinositide hydrolysis (inositol phosphate synthesis) in HEK293 cells expressing FP receptor", "type": "cell-based", "conditions": "1 μM PGF2α", "experimental": "Both PCP-8 and -10 were tested in HEK293 cells expressing the human FP receptor. For this purpose, HEK 293 cells stably expressing human FP receptor were plated in 12-well plates in DMEM medium containing 10% fetal bovine serum, penicillin (10 U/ml) and streptomycin (10 μg/ml) and cultured in a humidified atmosphere containing 5% CO2 at 37° C. After the wells were 80% confluent, the cells were labeled with 2 μCi/ml of [^3H]-myo inositol overnight. Next day, the cells were washed once with PBS, and incubated in 0.5 ml of Kreb's buffer containing 10 mM LiCl and indicated concentrations of PCP peptides for 30 min. PGF2α at 1 μM was added to the cells and the incubation was carried out for an additional 30 min. The cells were solubilized with 0.1 N NaOH for 10 min and neutralized with 0.1 N formic acid. The lysates were collected and 1 ml each of methanol and chloroform were sequentially added and vortexed briefly. After centrifugation to separate the phases, inositol phosphates were separated by ion exchange chromatography as described below (Berridge, M. J. et al., 1983, Biochem. J. 212:473–482).\nBriefly, the medium was discarded and the IP3 synthesis was stopped by adding 0.6 ml ice-cold methanol. The cells were scraped and collected into polypropylene tubes. Distilled water (0.5 ml) and chloroform (0.6 ml) were added and vigorously vortexed for 2 min. The phases were separated by centrifugation at 6000×g for 10 min. The aqueous phase was applied to AG-1X-8™ (Formate form) anion exchange columns (1 ml bed volume) and free inositol was eluted with 10 ml of water, followed by 60 mM ammonium formate in 0.1 M formic acid. Then, the inositol phosphates were eluted with 5 ml of 1.2 M ammonium formate in 0.1 M formic acid. After adding 3 volumes of scintillation cocktail (Optiphase-HiSafe III), the eluates were counted by scintillation spectrophotometry.\nData are expressed as fold stimulation of inositol phosphate synthesis by 1 μM PGF2α compared to the unstimulated controls. […] The half maximal inhibitory concentrations for both PCP-8 and -10 were slightly less than 100 μM."}, "TP receptor": {"tested_on": "TP receptor", "test": "Porcine eyecup model of ex vivo vasomotricity assay, constriction by TxA2 mimetic U46619", "set-up": "species or system pig", "conditions": "peptide 100 μM; 1 μM U46619 / dose response", "experimental": "(§1) To prepare eyecups, a circular incision was made 3–4 mm posterior to ora serrata to remove the […] segment and vitreous body with minimal handling of the retina. The remaining eyecup was fixed with pins to a wax base in a 20 ml tissue bath containing 20 ml of Kreb's buffer (pH 7.35–7.45), protease inhibitors, leupetin and aprotinin (10 μg/ml each), and equilibrated with 21% oxygen and 5% carbon dioxide at 37° C. The preparations were allowed to stabilize for 30 min. Peptides at 100 μM were added and incubation was continued for 30 min before the addition of PGF2α.\n(§2) Cumulative concentration-responses of PGF2α, and TxA2 mimetic, U46619, (10^−10 to 10^−5 M) curves were constructed separately. To assess the reversibility of the antagonists, the eyecups were thoroughly washed (which would wash away the peptide) with incubation medium and concentration response curves for PGF2α were determined. The outer vessel diameter was recorded with a video camera mounted on a dissecting microscope (Zeiss M 400™) and the responses were quantified by a digital image analyzer (Sigma Scan Software, Jandel Scientific, Corte Madera, Calif.). Vascular diameter was recorded before and 10 min following the topical application of the agent.\nThe peptide PCP-10 had no effect on the basal tone (diameter of the microvessel) of the vessel (FIG. 2A; left panels). […]"}, "FP receptor [1]": {"tested_on": "FP receptor", "test": "Porcine uterine strip ex vivo contraction assay (basal and PGF2α-induced)", "set-up": "species or system pig", "conditions": "100 μM peptide", "experimental": "In ex vivo experiments using porcine uterine strips, the peptides were able to prevent both basal and PGF2α-induced contraction.\nUterine tissues from non-pregnant adult pigs were obtained from a local slaughter house and transported to the laboratory on ice. Uterine myometrial strips of approximately 1 cm in length were set up in organ baths containing Kreb's buffer equilibrated with 21% oxygen at 37° C. as we have described (Potvin, W. et al., 1990, Br. J. Pharmacol. 100:341–347; Varma, D. R. and Chemtob, S., 1993, J. Pharmacol. Expt. Ther. 265:1096–1104). Contractions were recorded by force transducers on Grass-polygraph. Strips were incubated with or without 100 μM peptides for 30 min before adding PGF2α in step-wise increments (10^−9 to 10^−6 M). Data were expressed as percentage increase over the basal level of average tension (g).\nA graph of spontaneous uterine contractions (known to be dependent upon prostanoids, mainly PGF2α) in the absence and the presence of 100 μM PCP-8 are shown in FIG. 3A."}, "FP receptor [2]": {"target": "T2, FP receptor (Sus scrofa, UniProt C6GAG8)", "T2 construct": "from tissue; host or cells: eyecup / retinal microvessels of newborn pigs pretreated with ibuprofen", "T2 sequence (C6GAG8 1-362)": "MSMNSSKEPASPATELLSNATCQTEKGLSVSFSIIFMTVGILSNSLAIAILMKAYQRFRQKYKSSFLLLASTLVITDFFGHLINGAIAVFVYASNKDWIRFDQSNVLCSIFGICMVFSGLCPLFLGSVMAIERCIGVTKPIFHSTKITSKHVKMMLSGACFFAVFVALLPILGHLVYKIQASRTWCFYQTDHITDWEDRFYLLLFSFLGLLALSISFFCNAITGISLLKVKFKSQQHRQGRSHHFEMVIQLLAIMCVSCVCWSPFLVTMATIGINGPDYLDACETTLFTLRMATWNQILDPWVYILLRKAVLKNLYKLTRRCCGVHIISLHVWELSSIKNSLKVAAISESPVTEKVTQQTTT", "test": "Porcine eyecup model of ex vivo vasomotricity assay, PGF2α-induced constriction of retinal microvessels", "set-up": "species or system pig", "description": "In order to see if the peptides could inhibit FP function using an ex vivo model, we chose porcine eyecup model, an ex vivo assay of vascular constriction in porcine retinas which we previously described and validated (Li et al., 1996 J. Pharmacol. Expt. Therapeut. 278: 370–377; Li et al., 1997 Am. J. Physiol. 273: R1283–90; Abran et al., 1997 Am. J. Physiol. 272: R995–1001). Since FP receptor densities in newborn vasculature are minimal due to down regulation by high levels of circulating prostaglandins in the perinatal period, the newborn pigs were treated with a prostaglandin synthetase blocker, ibuprofen (30 mg/Kg of bodyweight/8 h for 24 h) to increase the density of the receptors as well as their vasomotor effects. By inhibiting circulating prostaglandins, we were able to show potent inhibition of FP receptor-mediated second messenger synthesis as well as FP-mediated vascular constriction in this eyecup model.\nas §1, §2\n^1Percent vasomotor response in the presence of 100 μM peptide is calculated as percent change in average vascular diameter produced by 10^−7 M PGF2α to the eyecup in the presence of the peptide compared to maximal constriction observed in the absence of the peptide.\n^2Percent inhibition produced by each peptide is calculated as (100-percent vasomotor response).\nSmall letters indicate L-amino acids and capital letters indicate D-amino acids. I=isoleucine; L=leucine; G=glycine; H=histidine; R=Arginine; D=Aspartic acid; Y=Tyrosine; K=Lysine; A=Alanine; W=Tryptophan; E=Glutamic acid; F=Phenyl alanine; Q=Glutamine; N=Aspargine; P=Proline; S=Serine; X=Cyclohexyl alanine. Peptides were dissolved in DMSO freshly just before the experiment as 10 mM stocks and added to the eye cups 30 min before the addition of 10^−7 M PGF2α.\nThese peptides incorporate L- to D-amino acid changes, deletions, subtle variations in aromaticity, hydrogen bond donor status as opposed to ionic interactions and hydrophobicity."}}, "note": "Ends that are not written are not given here.", "data": [{"substance": "ILGHRDYK-OH [PCP-8, ilghrdyk]", "values": [{"measurement": "IC50", "setting": "human FP receptor; HEK293 cells stably expressing human FP receptor, read-out: half maximal inhibitory concentration, inositol phosphate synthesis", "result": "< 100", "unit": "µM"}, {"measurement": "inhibition of inositol phosphate synthesis initiated by PGF2α", "setting": "human FP receptor; peptide at 100 μM", "result": "potently inhibited"}, {"measurement": "effect on vasoconstriction by TxA2 mimetic U46619", "setting": "TP receptor", "result": "no effect"}, {"measurement": "reduction in uterine contraction", "setting": "FP receptor [1]; all concentrations of PGF2α tested (10^−9 to 10^−6 M)", "result": "More than 60%"}, {"measurement": "effect on spontaneous (basal) uterine contraction", "setting": "FP receptor [1]; porcine uterine strips", "result": "reduced the force of basal contraction"}, {"measurement": "Emax", "setting": "FP receptor [2]; 100 μM peptide, 10^−7 M PGF2α, calculated as 100-percent vasomotor response, read-out: % inhibition of maximal response", "result": 50, "unit": "%"}, {"measurement": "effect on vasomotor responses in PGF2α dose response", "setting": "FP receptor [2]; peptide 100 μM, even at concentrations exceeding 1 μM of PGF2α", "result": "abrogated the vasomotor responses"}]}]}
